# Source: ChEMBL document CHEMBL3745656, “Discovery of Inhibitors That Overcome the G1202R Anaplastic Lymphoma Kinase Resistance Mutation” (J Med Chem, 2015)
# Tests used:
# in vivo [1] = conditions: mouse, brain, iv, 2 mg/kg
# in vivo [2] = conditions: mouse, brain, po, 10 mg/kg
# [3] = Plasma concentration in mouse at 2 mg/kg, iv after 8 hrs; format: ADME, organism-based
# [4] = Plasma concentration in mouse at 10 mg/kg, po after 8 hrs; format: ADME, organism-based
# [5] = Plasma concentration in mouse at 2 mg/kg, iv after 2 hrs; format: ADME, organism-based
# [6] = Plasma concentration in mouse at 10 mg/kg, po after 2 hrs; format: ADME, organism-based
concentration at 8 h [3] [nM],concentration at 8 h [4] [nM],concentration at 2 h [5] [nM],concentration at 2 h [6] [nM],Structure (SMILES),concentration at 8 h (in vivo [1]) [nM],concentration at 8 h (in vivo [2]) [nM]
,,,,CCc1cc2c(cc1-c1cnn(CC(=O)N(C)C)c1)C(C)(C)c1[nH]c3cc(C#N)ccc3c1C2=O,4,4
50,170,210,210,CCc1cc2c(cc1-c1cnn(CCCN(C)C)c1)C(C)(C)c1[nH]c3cc(C#N)ccc3c1C2=O,80,
